In brackets after ≈: the same amount, converted by molar mass. Activity calls are given as the source filed them. No cut-off for these calls is given here.
Experiments:
[1] = Hemolytic activity in human RBC assessed as hemolysis at 512 ug/ml incubated for 1 hr relative to control; assay type: toxicity, cell-based, Erythrocyte; details: human red blood cells (erythrocytes), at 512 µg/mL, read-out: Activity
[2] = Cytotoxicity against human Colon epithelial cell assessed as cell viability upto 50 ug/ml relative to control; assay type: toxicity, cell-based; details: colon epithelial cells, up to 50 µg/mL, read-out: Activity
Escherichia coli [3] = experiment: Bactericidal activity against Escherichia coli ATCC 25922 assessed as reduction in colony forming unit at MIC by time-kill kinetic assay; assay type: functional
Escherichia coli [4] = experiment: Induction of oxidative stress in Escherichia coli ATCC 25922 assessed as decrease in GSH activity by Ellman's method; assay type: functional, organism-based
Acinetobacter baumannii [5] = experiment: Induction of drug resistance against Acinetobacter baumannii assessed as fold increase at MIC measured after 16 passages; assay type: functional
Cell membrane [6] = experiment: Induction of inner membrane damage in Acinetobacter baumannii at 1 to 4 times MIC by PI staining fluorescence microscopy; assay type: cell membranes
Staphylococcus aureus [7] = experiment: Antibacterial activity against Staphylococcus aureus ATCC 29213 assessed as inhibition of bacterial growth incubated for 18 hrs by two fold broth microdilution assay; assay type: functional
Cell membrane [8] = experiment: Induction of membrane depolarization in Acinetobacter baumannii assessed as increase in fluorescence intensity measured at 20 to 120 min by DiSC3(5) dye-based fluorescence assay; assay type: cell membranes; details: time 20-120 min
Cell membrane [9] = experiment: Induction of inner membrane permeabilization in Acinetobacter baumannii assessed as increase in fluorescence intensity by PI staining based fluorescence analysis; assay type: cell membranes
Pseudomonas aeruginosa [10] = experiment: Antibacterial activity against Pseudomonas aeruginosa ATCC 27853 assessed as inhibition of bacterial growth incubated for 18 hrs by two fold broth microdilution assay; assay type: functional
Calf thymus DNA [11] = experiment: Binding affinity to calf thymus DNA assessed as DNA intercalation by measuring hypochromic shift by absorbance based UV-Vis spectroscopic analysis; assay type: nucleic-acid assay; details: Bos taurus
[12] = Cytotoxicity against human Colon epithelial cell at 20 ug/ml; assay type: toxicity, cell-based; details: dose 20 µg/ml
Escherichia coli [13] = experiment: Induction of drug resistance against Escherichia coli ATCC 25922 assessed as fold increase at MIC measured after 16 passages; assay type: functional
[14] = Cytotoxicity against human Squamous epithelial cell at 20 ug/ml; assay type: toxicity, cell-based; details: dose 20 µg/ml
Pseudomonas aeruginosa [15] = experiment: Antibacterial activity against Pseudomonas aeruginosa assessed as inhibition of bacterial growth incubated for 18 hrs by two fold broth microdilution assay; assay type: functional
Escherichia coli [16] = experiment: Bactericidal activity against Escherichia coli ATCC 25922 assessed as reduction in bacterial growth at 4 times MIC observed after 2 hrs by time-kill kinetic assay; assay type: functional; design: scale not given: the % may be the effect or the level left
Escherichia coli [17] = experiment: Antibacterial activity against Escherichia coli assessed as inhibition of bacterial growth incubated for 18 hrs by two fold broth microdilution assay; assay type: functional
Cell membrane [18] = experiment: Induction of membrane depolarization in Escherichia coli ATCC 25922 assessed as increase in fluorescence intensity at 1 to 8 times MIC by DiSC3(5) dye-based fluorescence assay; assay type: cell membranes; details: TDE = time-dependent effect
Acinetobacter baumannii [19] = experiment: Antibacterial activity against Acinetobacter baumannii assessed as increase in intracellular ROS production by DCFH-DA staining based assay; assay type: functional, organism-based
Acinetobacter baumannii [20] = experiment: Induction of oxidative stress in Acinetobacter baumannii assessed as decrease in GSH activity by Ellman's method; assay type: functional, organism-based
Acinetobacter baumannii [21] = experiment: Antibacterial activity against Acinetobacter baumannii assessed as increase in intracellular ROS production by measuring green fluorescence by DCFH-DA staining based microscopic analysis; assay type: functional, organism-based
Calf thymus DNA [22] = experiment: Binding affinity to calf thymus DNA assessed as decrease in fluorescence intensity of AO-DNA binding by acridine orange probe based competitive binding assay; assay type: nucleic-acid assay; details: Bos taurus
Escherichia coli [23] = experiment: Antibacterial activity against Escherichia coli ATCC 25922 assessed as reduction in biofilm formation at 8 times MIC relative to control; assay type: functional; design: scale not given: the % may be the effect or the level left
Staphylococcus aureus [24] = experiment: Antibacterial activity against Staphylococcus aureus ATCC 25923 assessed as inhibition of bacterial growth incubated for 18 hrs by two fold broth microdilution assay; assay type: functional
Klebsiella pneumoniae = experiment: Antibacterial activity against Klebsiella pneumoniae assessed as inhibition of bacterial growth incubated for 18 hrs by two fold broth microdilution assay; assay type: functional
Acinetobacter baumannii [25] = experiment: Antibacterial activity against Acinetobacter baumannii assessed as reduction in metabolic activity by alamar blue staining based assay; assay type: functional, organism-based
Cell membrane [26] = experiment: Induction of inner membrane damage in Escherichia coli ATCC 25922 at 1 to 4 times MIC by PI staining fluorescence microscopy; assay type: cell membranes
Cell membrane [27] = experiment: Induction of cell membrane disruption in Escherichia coli ATCC 25922 assessed as increase in protein leakage at 0.5 to 8 times MIC; assay type: cell membranes
Cell membrane [28] = experiment: Induction of outer membrane permeabilization in Acinetobacter baumannii assessed as increase in fluorescence intensity by NPN-dye based fluorescence analysis; assay type: cell membranes
Cell membrane [29] = experiment: Induction of membrane depolarization in Acinetobacter baumannii assessed as increase in fluorescence intensity at 1 to 8 times MIC by DiSC3(5) dye-based fluorescence assay; assay type: cell membranes; details: TDE = time-dependent effect
Enterococcus faecalis = experiment: Antibacterial activity against Enterococcus faecalis assessed as inhibition of bacterial growth incubated for 18 hrs by two fold broth microdilution assay; assay type: functional
Acinetobacter baumannii [30] = experiment: Antibacterial activity against Acinetobacter baumannii assessed as reduction in LDH activity; assay type: functional, organism-based
Escherichia coli [31] = experiment: Antibacterial activity against Escherichia coli ATCC 25922 assessed as inhibition of bacterial growth incubated for 18 hrs by two fold broth microdilution assay; assay type: functional
Acinetobacter baumannii [32] = experiment: Antibacterial activity against Acinetobacter baumannii assessed as reduction in biofilm formation at 8 times MIC relative to control; assay type: functional; design: scale not given: the % may be the effect or the level left
Acinetobacter baumannii [33] = experiment: Antibacterial activity against Acinetobacter baumannii assessed as inhibition of bacterial growth incubated for 18 hrs by two fold broth microdilution assay; assay type: functional
Cell membrane [34] = experiment: Induction of inner membrane permeabilization in Escherichia coli ATCC 25922 assessed as increase in fluorescence intensity by PI staining based fluorescence analysis; assay type: cell membranes
Escherichia coli [35] = experiment: Antibacterial activity against Escherichia coli ATCC 25922 assessed as increase in intracellular ROS production by DCFH-DA staining based assay; assay type: functional, organism-based
Acinetobacter baumannii [36] = experiment: Bactericidal activity against Acinetobacter baumannii assessed as reduction in colony forming unit at MIC by time-kill kinetic assay; assay type: functional
Escherichia coli [37] = experiment: Antibacterial activity against Escherichia coli ATCC 25922 assessed as reduction in metabolic activity by alamar blue staining based assay; assay type: functional, organism-based
Staphylococcus aureus [38] = experiment: Antibacterial activity against methicilin-resistant Staphylococcus aureus N315 assessed as inhibition of bacterial growth incubated for 18 hrs by two fold broth microdilution assay; assay type: functional
[39] = Cytotoxicity against human Squamous epithelial cell assessed as cell viability upto 50 ug/ml relative to control; assay type: toxicity, cell-based; details: squamous epithelial cells, up to 50 µg/mL, read-out: Activity
Acinetobacter baumannii [40] = experiment: Antibacterial activity against Acinetobacter baumannii assessed as reduction in biofilm formation; assay type: functional, organism-based
Cell membrane [41] = experiment: Induction of cell membrane disruption in Acinetobacter baumannii assessed as increase in protein leakage at 0.5 to 8 times MIC; assay type: cell membranes
Cell membrane [42] = experiment: Induction of cell membrane disruption in Escherichia coli ATCC 25922 assessed as cell membrane shrank at 2 times MIC by scanning electron microscopic analysis; assay type: cell membranes
Cell membrane [43] = experiment: Induction of outer membrane permeabilization in Escherichia coli ATCC 25922 assessed as increase in fluorescence intensity by NPN-dye based fluorescence analysis; assay type: cell membranes
Escherichia coli [44] = experiment: Antibacterial activity against Escherichia coli ATCC 25922 assessed as increase in intracellular ROS production by measuring green fluorescence by DCFH-DA staining based microscopic analysis; assay type: functional, organism-based
Staphylococcus aureus [45] = experiment: Antibacterial activity against Staphylococcus aureus assessed as inhibition of bacterial growth incubated for 18 hrs by two fold broth microdilution assay; assay type: functional
Cell membrane [46] = experiment: Induction of cell membrane disruption in Acinetobacter baumannii assessed as cell membrane shrank at 2 times MIC by scanning electron microscopic analysis; assay type: cell membranes
Escherichia coli [47] = experiment: Antibacterial activity against Escherichia coli ATCC 25922 assessed as reduction in biofilm formation; assay type: functional, organism-based
Acinetobacter baumannii [48] = experiment: Bactericidal activity against Acinetobacter baumannii assessed as reduction in bacterial growth at 4 times MIC observed after 2 hrs by time-kill kinetic assay; assay type: functional; design: scale not given: the % may be the effect or the level left
Erythrocyte = experiment: Hemolytic activity in human RBC assessed as intact cell surface at 512 ug/ml incubated for 1 hr by microscopic analysis; assay type: toxicity, cell-based; details: dose 512 µg/ml
Escherichia coli [49] = experiment: Antibacterial activity against Escherichia coli ATCC 25922 assessed as reduction in LDH activity; assay type: functional, organism-based
Cell membrane [50] = experiment: Induction of membrane depolarization in Escherichia coli ATCC 25922 assessed as increase in fluorescence intensity measured at 20 to 120 min by DiSC3(5) dye-based fluorescence assay; assay type: cell membranes; details: time 20-120 min

In the case of `N#C/C(=C\c1cn(CCO)c2ccccc12)S(=O)(=O)c1ccc(N)cc1`, the hemolysis at 1 h, 512 ug/ml [1] is reported as < 3%, the viability [2] is reported as > 85% and the Activity (Escherichia coli [3]) is reported as 2.5 log10CFU. The Activity (Escherichia coli [4]) was “Dose-Dependent Effect”, the “fold change (FC)” value (Acinetobacter baumannii [5]) was 8 and the Activity (Cell membrane [6]) was “Active”. For the same compound, the MIC (Staphylococcus aureus [7]) was 2 µg/mL (≈ 5.44 µM), the Activity (Cell membrane [8]) was “Dose-Dependent Effect” and the Activity (Cell membrane [9]) was “Dose-Dependent Effect”. The MIC (Pseudomonas aeruginosa [10]) was 4 µg/mL (≈ 10.9 µM), the Activity (Calf thymus DNA [11]) was “Active” and the Activity [12] was “Non-Toxic”. The fold change (FC) (Escherichia coli [13]) was 8, the Activity [14] was “Non-Toxic” and the MIC (Pseudomonas aeruginosa [15]) was 2 µg/mL (≈ 5.44 µM). For the same compound, the Activity (Escherichia coli [16]) was 57%, the MIC (Escherichia coli [17]) was 8 µg/mL (≈ 21.8 µM) and the Activity (Cell membrane [18]) was “Tde”. For the same compound, the Activity (Acinetobacter baumannii [19]) was “Dose-Dependent Effect”, the Activity (Acinetobacter baumannii [20]) was “Dose-Dependent Effect” and the Activity (Acinetobacter baumannii [21]) was “Dose-Dependent Effect”. For the same compound, the Activity (Calf thymus DNA [22]) was “Active”, the Activity (Escherichia coli [23]) was 21% and the MIC (Staphylococcus aureus [24]) was 1 µg/mL (≈ 2.72 µM). For the same compound, the MIC (Klebsiella pneumoniae) was 8 µg/mL (≈ 21.8 µM), the Activity (Acinetobacter baumannii [25]) was “Dose-Dependent Effect” and the Activity (Cell membrane [26]) was “Active”. The Activity (Cell membrane [27]) was “Active”, the Activity (Cell membrane [28]) was “Dose-Dependent Effect” and the Activity (Cell membrane [29]) was “Tde”. For the same compound, the MIC (Enterococcus faecalis) was 4 µg/mL (≈ 10.9 µM), the Activity (Acinetobacter baumannii [30]) was “Dose-Dependent Effect” and the MIC (Escherichia coli [31]) was 0.5 µg/mL (≈ 1.36 µM). For the same compound, the Activity (Acinetobacter baumannii [32]) was 39%, the MIC (Acinetobacter baumannii [33]) was 0.5 µg/mL (≈ 1.36 µM) and the Activity (Cell membrane [34]) was “Dose-Dependent Effect”. For the same compound, the Activity (Escherichia coli [35]) was “Dose-Dependent Effect”, the Activity (Acinetobacter baumannii [36]) was 2 log10CFU and the Activity (Escherichia coli [37]) was “Dose-Dependent Effect”. The MIC (Staphylococcus aureus [38]) was 2 µg/mL (≈ 5.44 µM), the viability [39] was > 85% and the Activity (Acinetobacter baumannii [40]) was “Dose-Dependent Effect”. For the same compound, the Activity (Cell membrane [41]) was “Active”, the Activity (Cell membrane [42]) was “Active” and the Activity (Cell membrane [43]) was “Dose-Dependent Effect”. The Activity (Escherichia coli [44]) was “Dose-Dependent Effect”, the MIC (Staphylococcus aureus [45]) was 2 µg/mL (≈ 5.44 µM) and the Activity (Cell membrane [46]) was “Active”. For the same compound, the Activity (Escherichia coli [47]) was “Dose-Dependent Effect”, the Activity (Acinetobacter baumannii [48]) was 57% and the Activity (Erythrocyte) was “Non-Toxic”. For the same compound, the Activity (Escherichia coli [49]) was “Dose-Dependent Effect” and the Activity (Cell membrane [50]) was “Dose-Dependent Effect”.
